Measured values taken from patent publication US20260091015A1, “TREATING IRON DEFICIENCY WITH FERRIC CARBOXYMALTOSE” (PHARMACOSMOS HOLDING A/S, priority 2018, published 2026).

Legend:
PTH = assay: Intact PTH sandwich immunoassay, trials IDA-04/IDA-05; assay type: in vivo, human; conditions: IDA-04 and IDA-05 combined
Text: The term “serum parathyroid hormone (PTH)” as used herein refers to the level of serum parathyroid hormone in blood serum as measured using a two-site sandwich immunoassay using direct chemiluminometric technology, which used constant amounts of two anti-human PTH antibodies. PTH, produced by the parathyroid gland, is the major circulating factor regulating extracellular calcium concentration. Abnormally low ionized calcium concentrations trigger the secretion of PTH. The PTH molecules bind to type 1 PTH receptors in target tissues and initiate a sequence of reactions that results in an increase in extracellular calcium concentrations. PTH stimulates osteoclastic bone resorption resulting in the release of calcium from bone. […]
The following safety laboratory assessments were analysed: • S-phosphate: inorganic phosphorous forms an ammonium phosphomolybdate complex having the formula (NH4)3[PO4](MoO3)12 with ammonium molybdate in the presence of sulfuric acid. The complex was determined photometrically in the ultraviolet region (340 nm) of the spectrum using the Roche Modular and Cobas Analyzer. • iFGF23 and cFGF23: the human intact FGF23 was measured by the 2nd generation Elisa kit manufactured by Immonotropics, Inc, San Clemente, CA. […] The human C-terminal FGF23 was measured by the Elisa kit manufactured by Immonotropics, Inc, San Clemente, CA. […]

[1] = Respiratory muscles strength (MIP and MEP), trials IDA-04/IDA-05; assay type: in vivo, human; conditions: relative to the comparator IV iron treatment
Experimental: The trial was a randomized, open-label, comparative trial. Subjects with Iron Deficiency Anaemia (IDA) were randomized 1:1 to one treatment course of one of the following treatments: • Group A: iron isomaltoside 1000 (Monofer®, Pharmacosmos, Holbok, Denmark, termed iron isomaltoside in the following), 1000 mg at baseline • Group B: ferric carboxymaltose (Ferinject®/Injectafer®, Vifor Inc, Switzerland), 750 mg at baseline and day 7, cumulative dose: 1500 mg […]
The measurements of MIP and MEP provided a non-invasive clinical method for evaluating the strength of respiratory muscles, and it was the most widely used test to assess muscle pressures [ATS/ERS statement, 2002]. […] MIP and MEP were measured by MicroRPM (CareFusion Germany 234 GmbH, Hoechberg, Germany). […]

PTH (PTH): increase
respiratory muscle strength (maximal inspiratory and/or expiratory pressure) [1]: reduced
Substance: ferric carboxymaltose [FCM]
